*1 amine or outer side, *2 acyl side, *3 side chain or, on linkers, in order; H or OH if unused. Where a SMILES comes first, the peptide text is derived from it. Bridges are numbered along the chain shown (N, C = ends). [ ]: non-standard residue; d: D form. The star is where a group is joined. X5 = NC(=O)[C@H](CCCCNC(=O)CN1CCN(CC(=O)O)CCN(CC(=O)O)CCN(CC(=O)O)CC1)NC(=O)CCC(=O)NCCCOCCOCCOCCCN*; DOTA(In) = O=C1CN2CCN3CCN(CC(=O)*)CCN(CC2)CC(=O)[O][In]([O]1)[O]C(=O)C3; X3 = O=C(O)CN1CCN(CC(=O)O)CCN(CC(=O)NCCCOCCOCCOCCCN*)CCN(CC(=O)O)CC1; NH(1-deoxy-D-glucityl) = OC[C@@H](O)[C@@H](O)[C@H](O)[C@@H](O)CN*; DOTA = O=C(O)CN1CCN(CC(=O)O)CCN(CC(=O)*)CCN(CC(=O)O)CC1; Trp(5-Cl) = N[C@@H](Cc1c[nH]c2ccc(Cl)cc12)C(=O)O; Pyridine(2,6-diCH2) = c1cc(C[*:1])nc(C[*:2])c1; Pro(4R-NH2) = N[C@H]1CN[C@H](C(=O)O)C1; mXylylene = c1cc(C[*:1])cc(C[*:2])c1; Glutaryl = O=C(CCCC(=O)[*:2])[*:1]; X7 = c1cc(CSCCN[*:2])cc(C[*:1])c1; Hyp = O=C(O)[C@@H]1C[C@@H](O)CN1; X1 = O=C(CN1CCC(N[*:1])CC1)[*:2]; Suc = O=C(CCC(=O)[*:2])[*:1]; hSer = N[C@@H](CCO)C(=O)O; Api = NC1(C(=O)O)CCNCC1; Thp = NC1(C(=O)O)CCOCC1; Aib = CC(C)(N)C(=O)O
Columns and labels:
[1] = target: T1, GIPR (CHO-K1-hGIPR cells) (Homo sapiens, UniProt P48546); experiment: FACS binding assay; conditions: competition with 20 nM GIP-057, 4° C., 1 hour, read-out: pIC50 Category (converted)
T1 construct: host or cells: CHO-K1
T1 sequence (P48546 22-466): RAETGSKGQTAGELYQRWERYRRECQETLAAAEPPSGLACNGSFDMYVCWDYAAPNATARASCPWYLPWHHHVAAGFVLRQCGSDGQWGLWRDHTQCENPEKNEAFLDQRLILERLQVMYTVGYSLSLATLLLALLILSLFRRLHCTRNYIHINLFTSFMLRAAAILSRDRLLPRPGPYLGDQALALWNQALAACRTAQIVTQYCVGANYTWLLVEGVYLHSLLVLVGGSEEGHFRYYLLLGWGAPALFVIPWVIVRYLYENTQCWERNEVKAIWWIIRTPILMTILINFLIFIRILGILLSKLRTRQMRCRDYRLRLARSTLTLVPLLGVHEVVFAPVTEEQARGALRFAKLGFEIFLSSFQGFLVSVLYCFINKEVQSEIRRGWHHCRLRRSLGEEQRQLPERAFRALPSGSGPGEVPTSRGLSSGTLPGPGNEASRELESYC
Procedure, shortened: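 CHO-K1 cells stably expressing human GIPR were detached with Accutase, suspended at 500.000 cells per mL in PBS with 1% FCS, and washed ice-cold. Bound peptide was detected with 1 μg/mL APC-streptavidin for 30 min on ice.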

[2] = target: T2, human GIP receptor (bioGIPR) (Homo sapiens, UniProt P48546); experiment: Surface plasmon resonance (SPR) based binding assay; conditions: Single Cycle Kinetic mode, 25° C.; for t1/2 Category: SPR dissociation half-life; for Kd: SPR, 1:1 Langmuir binding model, read-out: pKD Category (converted)
T2 construct: Biotinylate extracellular of the human GIP receptor (bioGIPR, Proteros biostructures GmbH, lot #02/2b); purchased Proteros biostructures GmbH lot #02/2b
T2 sequence (P48546 22-138 limits assumed): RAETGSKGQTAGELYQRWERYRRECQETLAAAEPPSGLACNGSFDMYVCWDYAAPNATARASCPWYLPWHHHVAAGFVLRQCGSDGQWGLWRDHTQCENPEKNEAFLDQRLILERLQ
Description: Surface plasmon resonance (SPR) studies were performed using a Biacore™ T200 SPR system. Briefly, polarized light is directed towards a gold-labeled sensor surface, and minimum intensity reflected light is detected. The angle of reflected light changes as molecules bind and dissociate.
Biotinylate extracellular of the human GIP receptor (bioGIPR, Proteros biostructures GmbH, lot #02/2b) was captured on a biotin capture chip (Biotin CAPture Kit, Series S, GE Healthcare, Cat #28-9202-34). bioGIPR was diluted in Running Buffer (HBST from Xantec Analytics; […], 0.05% Tween20, 0.1% DMSO) to a final concentration 100 nM and than flushed over the Fc-capture chip to immobilized ˜3500 RUs.
Stock solutions of test compounds were prepared by dissolving each compound in DMSO. DMSO stock solution were diluted 1:1000 in Running Buffer without DMSO. Further sequential dilutions were made with Running Buffer containing 0.1% DMSO. SPR binding analyses were performed in Single Cycle Kinetic (SCK) mode at 25° C. Flow cell without immobilized bioGIPR served as reference flowcell. After each SCK run, bioGIRP and the Biotin Capture Reagent was removed with Regeneration Solution (6 M Guanidium, 0.75 M NaOH).
In between every three SCK measurements, a blank run with Running Buffer instead of test compound was included to correct for baseline drifts (double blanking method).
For each test compound, SPR raw data in the form of resonance units (RU) were plotted as sensorgrams using the Biacore™ T200 control software. The signal from the blank sensorgram was subtracted from that of the test compound sensorgram (blank corrected). The blank corrected sensorgram was corrected for baseline drift by subtracting the sensorgram of a SCK run without the test compound (running buffer only). The association rate (kon), dissociation rate (koff), dissociation constant (KD), and t1/2 were calculated from blank corrected SPR data using the 1:1 Langmuir binding model from the Biacore™ T200 evaluation software. Raw data and fit results were imported as text files in IDBS. The pKD value (negative decadic logarithm of dissociation constant) was calculated in the IDBS excel template.

IC50 [1] | t1/2 Category [2] | Kd [2] | Compound
10 to 79.4 nM | D (t1/2<2.0 min) | 1 to 7.94 nM | CC[C@H](C)[C@@H]1NC(=O)[C@H](CC(C)C)NC(=O)C2(CCN(C(=O)CN3CCN(CC(=O)O)CCN(CC(=O)O)CCN(CC(=O)O)CC3)CC2)NC(=O)[C@@H](NC(=O)[C@@H](CC(C)C)NC(=O)[C@H](CCC(=O)O)NC(=O)[C@@H]2C[C@@H](O)CN2C(=O)[C@H](Cc2c[nH]c3ccc(Cl)cc23)NC(=O)[C@H](Cc2c[nH]c3ccccc23)NC(=O)[C@H](CCO)NC(=O)CN2CCC(NC(=O)CCCC(=O)NC[C@H](O)[C@@H](O)[C@H](O)[C@H](O)CO)CC2)CSCc2cccc(n2)CSC[C@@H](C(=O)NC2CCN(CC(=O)N[C@H](CCC(=O)NC[C@H](O)[C@@H](O)[C@H](O)[C@H](O)CO)C(N)=O)CC2)NC1=O [GIP-049, AGLU-Glutar-APAc-Hse-Trp-5Clw-Hyp-Glu-leu-[Cys(2Lut)-Apc(DOTA)-Leu-Ile-Cys]-APAc-glu(AGLU)-NH2] ({NH(1-deoxy-D-glucityl)-Glutaryl}-[X1][hSer]W[Trp(5-Cl)][Hyp]E[dL]C[Api](DOTA)LIC[X1][dE](NH(1-deoxy-D-glucityl))-NH2; linker 8-12 via Pyridine(2,6-diCH2))
< 10 nM | A (t1/2 values>15 min) | < 1 nM | CC[C@H](C)[C@@H]1NC(=O)[C@H](CC(C)C)NC(=O)C(C)(C)NC(=O)[C@@H](NC(=O)[C@@H](CC(C)C)NC(=O)[C@H](CCC(=O)O)NC(=O)[C@@H]2CCCN2C(=O)[C@H](Cc2c[nH]c3ccc(Cl)cc23)NC(=O)[C@H](Cc2c[nH]c3ccccc23)NC(=O)[C@H](CC(=O)O)NC(C)=O)CSCc2cccc(c2)CSC[C@@H](C(=O)NCCCOCCOCCOCCCNC(=O)CCC(=O)N[C@@H](CCCCNC(=O)CN2CCN(CC(=O)O)CCN(CC(=O)O)CCN(CC(=O)O)CC2)C(N)=O)NC1=O [GIP-079, Ac-Asp-Trp-5Clw-Pro-Glu-leu-[Cys(3MeBn)-Aib-Leu-Ile-Cys]-Ttds-Lys(DOTA)-NH2] (Ac-DW[Trp(5-Cl)]PE[dL]C[Aib]LIC-X5; linker 7-11 via mXylylene)
< 10 nM | A (t1/2 values>15 min) | < 1 nM | CC[C@H](C)[C@@H]1NC(=O)[C@H](CC(C)C)NC(=O)C2(CCOCC2)NC(=O)[C@@H](NC(=O)[C@@H](CC(C)C)NC(=O)[C@H](CCC(=O)O)NC(=O)[C@@H]2C[C@@H](O)CN2C(=O)[C@H](Cc2c[nH]c3ccc(Cl)cc23)NC(=O)[C@H](Cc2c[nH]c3ccccc23)NC(=O)[C@H](CC(=O)O)NC(=O)CN2CCC(NC(=O)CN3CCN(CC(=O)O)CCN(CC(=O)O)CCN(CC(=O)O)CC3)CC2)CNCc2cccc(c2)CSCCNC1=O [GIP-107, DOTA-APAc-Asp-Trp-5Clw-Hyp-Glu-leu-[Dap(3MeBn)-Thp-Leu-Ile-AET]]
< 10 nM | A (t1/2 values>15 min) | < 1 nM | CC[C@H](C)[C@@H]1NC(=O)[C@H](CC(C)C)NC(=O)C(C)(C)NC(=O)[C@@H](NC(=O)[C@@H](CC(C)C)NC(=O)[C@H](CCC(=O)O)NC(=O)[C@@H]2C[C@@H](N)CN2C(=O)[C@H](Cc2c[nH]c3ccc(Cl)cc23)NC(=O)[C@H](Cc2c[nH]c3ccccc23)NC(=O)[C@H](CC(=O)O)NC(=O)CCC(=O)NCCCOCCOCCOCCCNC(=O)CN2CCN(CC(=O)O)CCN(CC(=O)O)CCN(CC(=O)O)CC2)CSCc2cccc(c2)CSCCNC1=O [GIP-095, DOTA-Ttds-Asp-Trp-5Clw-Tap-Glu-leu-[Cys(3MeBn)-Aib-Leu-Ile-AET]] ({X3-Suc}-DW[Trp(5-Cl)][Pro(4R-NH2)]E[dL]C[Aib]LI; linker 7-C via X7)
10 to 79.4 nM | D (t1/2<2.0 min) | 1 to 7.94 nM | CC[C@H](C)[C@@H]1NC(=O)[C@H](CC(C)C)NC(=O)C2(CCN(C(=O)CN3CCN(CC(=O)O)CCN(CC(=O)O)CCN(CC(=O)O)CC3)CC2)NC(=O)[C@@H](NC(=O)[C@@H](CC(C)C)NC(=O)[C@H](CCO)NC(=O)[C@@H]2C[C@@H](N)CN2C(=O)[C@H](Cc2c[nH]c3ccc(Cl)cc23)NC(=O)[C@H](Cc2c[nH]c3ccccc23)NC(=O)[C@H](CO)NC(=O)CN2CCC(NC(=O)CCCC(=O)NC[C@H](O)[C@@H](O)[C@H](O)[C@H](O)CO)CC2)CSCc2cccc(n2)CSC[C@@H](C(=O)NC2CCN(CC(=O)N[C@H](CCC(=O)NC[C@H](O)[C@@H](O)[C@H](O)[C@H](O)CO)C(N)=O)CC2)NC1=O [GIP-048, AGLU-Glutar-APAc-Ser-Trp-5Clw-Tap-Hse-leu-[Cys(2Lut)-Apc(DOTA)-Leu-Ile-Cys]-APAc-glu(AGLU)-NH2] ({NH(1-deoxy-D-glucityl)-Glutaryl}-[X1]SW[Trp(5-Cl)][Pro(4R-NH2)][hSer][dL]C[Api](DOTA)LIC[X1][dE](NH(1-deoxy-D-glucityl))-NH2; linker 8-12 via Pyridine(2,6-diCH2))
< 10 nM | A (t1/2 values>15 min) | < 1 nM | CC[C@H](C)[C@@H]1NC(=O)[C@H](CC(C)C)NC(=O)C2(CCOCC2)NC(=O)[C@@H](NC(=O)[C@@H](CC(C)C)NC(=O)[C@H](CCC(=O)O)NC(=O)[C@@H]2C[C@@H](O)CN2C(=O)[C@H](Cc2c[nH]c3ccc(Cl)cc23)NC(=O)[C@H](Cc2c[nH]c3ccccc23)NC(=O)[C@H](CC(=O)O)NC(=O)CCCC(=O)NC[C@H](O)[C@@H](O)[C@H](O)[C@H](O)CO)CSCc2cccc(n2)CSC[C@@H](C(=O)NC2CCN(CC(=O)N[C@H](CCC(=O)NC[C@H](O)[C@@H](O)[C@H](O)[C@H](O)CO)C(=O)N[C@@H](CCCCNC(=O)CN3CCN(CC(=O)O)CCN(CC(=O)O)CCN(CC(=O)O)CC3)C(N)=O)CC2)NC1=O [GIP-004, AGLU-Glutar-Asp-Trp-5Clw-Hyp-Glu-leu-[Cys(2Lut)-Thp-Leu-Ile-Cys]-APAc-glu(AGLU)-Lys(DOTA)-NH2] ({NH(1-deoxy-D-glucityl)-Glutaryl}-DW[Trp(5-Cl)][Hyp]E[dL]C[Thp]LIC[X1][dE](NH(1-deoxy-D-glucityl))K(DOTA)-NH2; linker 7-11 via Pyridine(2,6-diCH2))
< 10 nM |  | < 1 nM | CC[C@H](C)[C@@H]1NC(=O)[C@H](CC(C)C)NC(=O)C(C)(C)NC(=O)[C@@H](NC(=O)[C@@H](CC(C)C)NC(=O)[C@H](CCC(=O)O)NC(=O)[C@@H]2CCCN2C(=O)[C@H](Cc2c[nH]c3ccc(Cl)cc23)NC(=O)[C@H](Cc2c[nH]c3ccccc23)NC(=O)[C@H](CC(=O)O)NC(=O)CCC(=O)NCCCOCCOCCOCCCNC(=O)CN2CCN(CC(=O)O)CCN(CC(=O)O)CCN(CC(=O)O)CC2)CSCc2cccc(c2)CSCCNC1=O [GIP-077, DOTA-Ttds-Asp-Trp-5Clw-Pro-Glu-leu-[Cys(3MeBn)-Aib-Leu-Ile-AET]] ({X3-Suc}-DW[Trp(5-Cl)]PE[dL]C[Aib]LI; linker 7-C via X7)

Compound | IC50 [1] | t1/2 Category [2] | Kd [2]
CC[C@H](C)[C@@H]1NC(=O)[C@H](CC(C)C)NC(=O)C(C)(C)NC(=O)[C@@H](NC(=O)[C@@H](CC(C)C)NC(=O)[C@H](CCC(=O)O)NC(=O)[C@@H]2CCCN2C(=O)[C@H](Cc2c[nH]c3ccc(Cl)cc23)NC(=O)[C@H](Cc2c[nH]c3ccccc23)NC(=O)[C@H](CC(=O)O)NC(=O)CN2CCC(NC(=O)CN3CCN4CCN5CCN(CC3)CC(=O)[O][In]([O]C(=O)C4)[O]C(=O)C5)CC2)CSCc2cccc(c2)CSCCNC1=O [GIP-153, InDOTA-APAc-Asp-Trp-5Clw-Pro-Glu-leu-[Cys(3MeBn)-Aib-Leu-Ile-AET]] ({DOTA(In)}-[X1]DW[Trp(5-Cl)]PE[dL]C[Aib]LI; linker 8-C via X7) | < 10 nM |  | < 1 nM
